# Test results as given in PMC6023986, “Interactions Between Emodin and Efflux Transporters on Rat Enterocyte by a Validated Ussing Chamber Technique” (Frontiers in Pharmacology, 2018).
# Read-outs that look alike come from different tables or passages of the source.
# Key:
# MRP2 [1] = target: T1, MRP2 (Rattus norvegicus, UniProt Q63120); experiment: Ussing chamber bidirectional transport, model validation for MRP2 (pravastatin substrate, MK571 inhibitor); type: in vitro ADME; parameters: intestinal segments including duodenum, jejunum, ileum, and colon from anesthetized rats were immediately removed by surgery; from tissue; host or cells: stripped rat intestine (jejunum and ileum in validation; jejunum for the emodin studies); conditions: rat
# Text: (§1) The four intestinal segments including duodenum, jejunum, ileum, and colon from anesthetized rats were immediately removed by surgery and washed with KRB solution. Each section of the intestinal segments was then placed in cold (on ice), bubbled (O2:CO2 95:5) KRB buffer. The four intestinal segments were then cut into 2 cm pieces, respectively, and serosas were removed by blunt dissection. Peyer’s patches were excluded from the experiment by visually identified. The stripped tissues were mounted in chambers with exposed surface area of 0.49 cm^2. Temperature of the chambers was maintained at 37 ± 0.5°C. Each of the half-cells in the chambers was filled with 5 mL fresh KRB buffer (pH 6.5). Tissue viability was continuously controlled by potential difference (PD).
# Digoxin, pravastatin, and teniposide were employed as the test substrates of P-gp, MRP2, and MRP3. […] The experiments were started after 30 min equilibration time, by changing the KRB buffer on both sides; 5 mL KRB solution with different test compounds was filled in the mucosal or serosal compartment; meanwhile, equal volume fresh buffer was added to the other compartment. […] The bidirectional transport studies with specific inhibitors were assessed to validate this model whether or not suitable for P-gp, MRP2, and MRP3 studies.
# (§2) Frozen samples were adequately vortexed after thawing at the room temperature; 10 μL suitable IS solution was added to 200 μL samples; 200 μL methanol was added after a thorough vortex mixing for 30 s. The mixtures were then vortexed for 30 s and centrifuged at 15,000 rpm for 30 min. Finally, 5 μL of supernatant was injected into the LC-MS/MS system.
# The quantifications of the compounds were performed by the TSQ Quantum Ultra Triple Quadrupole LC-MS/MS system from Thermo Fisher Scientific. […] Adaptive gradient elution methods were applied for the analytes. The flow rate of the mobile phase was kept at 0.2 mL min^-1. Flow was directed to the ion spray interface. All measurements were carried out in negative ESI mode. Ion spray voltage was -2500 V. Vaporizer and capillary temperatures were set at 250 and 350°C, respectively. Auto sampler temperature was set at 10°C. Sheath gas and aux gas were set at 30 and 15 Arb, respectively. […] Peak integrations and calibrations were carried out using LC Quan 2.5.2 software from Thermo Fisher Scientific.
# (§3) where Cn (nM) is the concentration of the drug at the time point (n), Q (nM) is the accumulated absorption amount, A is the exposed surface area of the intestine (0.49 cm^2), dQ/dt (nM⋅s^-1) is the amount of the drug transported, and C0 (nM) is the initial concentration of the test drug. Experiments were performed in batches, so control groups were set as one for each batch.
# MRP2 [2] = target: T1, MRP2; experiment: Influence of emodin on MRP2 function: pravastatin bidirectional transport in the presence of emodin (Ussing chamber); type: in vitro ADME; parameters: intestinal segments including duodenum, jejunum, ileum, and colon from anesthetized rats were immediately removed by surgery; from tissue; host or cells: stripped rat intestine (jejunum and ileum in validation; jejunum for the emodin studies); conditions: rat jejunum; for Papp at 47 μM: rat
# Text: as §1, with “(PD). Tissue with electrical values less than 2 mV was refused ([Moazed and Hiebert, 2007]; [Heinen et al., 2013]).” for “(PD).”
# In this study, the effects of the three efflux transporters on emodin intestinal absorption were investigated. Meanwhile, the influence of emodin on intestinal P-gp, MRP2, and MRP3 functions were also discussed. Solutions with three concentrations (low, middle, and high) of emodin were filled in the mucosal or serosal compartment to measure the bidirectional transport characteristic. […] In the emodin impact experiments, digoxin, pravastatin, and teniposide were employed as P-gp, MRP2, and MRP3 substrates. Changes of the bidirectional transport characteristic were measured before and after adding emodin to the mucosal side.
# as §2
# The quantifications of the compounds were performed by the TSQ Quantum Ultra Triple Quadrupole LC-MS/MS system from Thermo Fisher Scientific. Chromatography was carried out using an Agilent Poroshell 120 SB-C18 (2.7 μm, 2.1 mm × 100 mm) column with a Phenomenex AFO-8497 C18 pre-column, operating at 30°C. Adaptive gradient elution methods were applied for the analytes. The flow rate of the mobile phase was kept at 0.2 mL min^-1. Flow was directed to the ion spray interface. All measurements were carried out in negative ESI mode. Ion spray voltage was -2500 V. Vaporizer and capillary temperatures were set at 250 and 350°C, respectively. Auto sampler temperature was set at 10°C. Sheath gas and aux gas were set at 30 and 15 Arb, respectively. […] Peak integrations and calibrations were carried out using LC Quan 2.5.2 software from Thermo Fisher Scientific.
# The Q (accumulative quantity), Papp (apparent permeability), Er (efflux ratio), Pr (Papp ratio), and Err (Er ratio) across the excited rat intestinal segments in the Ussing chamber were calculated using the following equations ([Li et al., 2012]; [Huang et al., 2016]): […]
# as §3
# T1 sequence (Q63120 whole entry): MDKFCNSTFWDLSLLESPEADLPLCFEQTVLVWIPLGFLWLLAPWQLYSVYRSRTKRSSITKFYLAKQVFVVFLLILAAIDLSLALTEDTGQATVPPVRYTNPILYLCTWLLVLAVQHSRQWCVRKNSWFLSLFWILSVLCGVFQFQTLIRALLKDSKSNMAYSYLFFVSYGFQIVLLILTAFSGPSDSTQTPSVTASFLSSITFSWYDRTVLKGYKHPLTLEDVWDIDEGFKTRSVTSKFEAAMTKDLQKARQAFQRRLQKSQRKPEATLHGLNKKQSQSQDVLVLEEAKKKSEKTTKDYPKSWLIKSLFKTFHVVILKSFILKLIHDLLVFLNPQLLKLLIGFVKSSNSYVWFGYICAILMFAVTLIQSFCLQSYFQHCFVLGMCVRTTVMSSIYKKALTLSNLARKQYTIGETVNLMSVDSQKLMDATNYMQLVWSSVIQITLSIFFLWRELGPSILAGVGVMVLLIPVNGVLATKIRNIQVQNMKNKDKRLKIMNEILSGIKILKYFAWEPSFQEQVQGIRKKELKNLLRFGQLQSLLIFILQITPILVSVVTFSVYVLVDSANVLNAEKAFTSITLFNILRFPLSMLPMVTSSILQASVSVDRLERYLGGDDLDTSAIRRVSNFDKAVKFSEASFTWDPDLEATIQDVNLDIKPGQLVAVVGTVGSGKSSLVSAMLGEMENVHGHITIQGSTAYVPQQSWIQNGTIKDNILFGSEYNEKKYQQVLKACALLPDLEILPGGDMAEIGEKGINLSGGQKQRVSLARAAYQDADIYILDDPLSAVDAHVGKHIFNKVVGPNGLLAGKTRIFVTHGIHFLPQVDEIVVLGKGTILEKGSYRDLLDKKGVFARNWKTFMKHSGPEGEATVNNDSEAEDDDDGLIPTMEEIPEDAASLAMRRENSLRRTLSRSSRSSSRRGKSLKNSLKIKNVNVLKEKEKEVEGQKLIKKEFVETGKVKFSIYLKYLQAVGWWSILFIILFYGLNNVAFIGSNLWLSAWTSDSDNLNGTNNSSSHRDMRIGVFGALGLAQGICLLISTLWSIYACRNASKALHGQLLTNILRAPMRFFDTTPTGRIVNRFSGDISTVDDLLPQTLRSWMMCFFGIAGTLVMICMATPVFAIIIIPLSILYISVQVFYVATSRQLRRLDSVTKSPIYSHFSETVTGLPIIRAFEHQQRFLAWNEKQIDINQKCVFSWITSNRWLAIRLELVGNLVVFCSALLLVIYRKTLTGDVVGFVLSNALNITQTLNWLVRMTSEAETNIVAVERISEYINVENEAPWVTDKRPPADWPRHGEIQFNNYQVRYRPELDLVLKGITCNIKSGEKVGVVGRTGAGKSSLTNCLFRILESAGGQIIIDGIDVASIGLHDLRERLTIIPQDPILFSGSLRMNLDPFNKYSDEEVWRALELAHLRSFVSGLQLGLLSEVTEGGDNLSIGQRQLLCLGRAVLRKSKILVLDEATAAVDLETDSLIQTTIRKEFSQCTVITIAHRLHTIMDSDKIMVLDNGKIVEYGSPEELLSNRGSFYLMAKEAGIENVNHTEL
structure (smiles),measurement,setting,value
CC[C@H](C)C(=O)O[C@H]1C[C@H](O)C=C2C=C[C@H](C)[C@H](CC[C@@H](O)C[C@@H](O)CC(=O)O)[C@H]21 [Pravastatin],Papp,"MRP2 [1]; pH 6.5, rat duodenum, without inhibitor, read-out: Papp M-S, control",124 ± 67.3 ×10⁻⁶ cm/s
same,Papp,"MRP2 [1]; pH 6.5, rat duodenum, without inhibitor, read-out: Papp S-M, control",287 ± 165 ×10⁻⁶ cm/s
same,Papp,"MRP2 [1]; pH 6.5, rat ileum, without inhibitor, read-out: Papp M-S, control",122 ± 52.5 ×10⁻⁶ cm/s
same,Papp,"MRP2 [1]; pH 6.5, rat ileum, without inhibitor, read-out: Papp S-M, control",678 ± 325 ×10⁻⁶ cm/s
same,Papp,"MRP2 [1]; pH 6.5, rat jejunum, without inhibitor, read-out: Papp M-S, control",146 ± 39.4 ×10⁻⁶ cm/s
same,Papp,"MRP2 [1]; pH 6.5, rat jejunum, without inhibitor, read-out: Papp S-M, control",496 ± 226 ×10⁻⁶ cm/s
same,Papp,"MRP2 [1]; pH 6.5, with MK571 186 μM on mucosal side, rat jejunum, with MK571 186 μM on mucosal side, read-out: Papp S-M, with inhibitor",127 ± 33.4 ×10⁻⁶ cm/s
same,Papp,"MRP2 [1]; pH 6.5, with MK571 186 μM, mucosal side, rat duodenum, with MK571 186 μM on mucosal side, read-out: Papp M-S, with inhibitor",77.9 ± 14.8 ×10⁻⁶ cm/s
same,Papp,"MRP2 [1]; pH 6.5, with MK571 186 μM, mucosal side, rat duodenum, with MK571 186 μM on mucosal side, read-out: Papp S-M, with inhibitor",112 ± 52.7 ×10⁻⁶ cm/s
same,Papp,"MRP2 [1]; pH 6.5, with MK571 186 μM, mucosal side, rat ileum, with MK571 186 μM on mucosal side, read-out: Papp M-S, with inhibitor",124 ± 67.9 ×10⁻⁶ cm/s
same,Papp,"MRP2 [1]; pH 6.5, with MK571 186 μM, mucosal side, rat ileum, with MK571 186 μM on mucosal side, read-out: Papp S-M, with inhibitor",224 ± 141 ×10⁻⁶ cm/s
same,Papp,"MRP2 [1]; pH 6.5, with MK571 186 μM, mucosal side, rat jejunum, with MK571 186 μM on mucosal side, read-out: Papp M-S, with inhibitor",107 ± 26.8 ×10⁻⁶ cm/s
same,Change of Papp and Er values of pravastatin after emodin added,"MRP2 [2]; pravastatin 47 μM, emodin 185, 370, 740 μM",No significant differences
same,Papp at 47 μM,"MRP2 [2]; pH 6.5, pravastatin 47 μM, without emodin, read-out: Papp M-S, control",64.5 ± 27.9 ×10⁻⁶ cm/s
same,Papp at 47 μM,"MRP2 [2]; pH 6.5, pravastatin 47 μM, without emodin, read-out: Papp S-M, control",82.2 ± 40.4 ×10⁻⁶ cm/s
same,Papp at 47 μM,"MRP2 [2]; pH 6.5, with emodin 185 μM on mucosal side, pravastatin 47 μM, emodin 185 μM on mucosal side, read-out: Papp M-S in the presence of emodin",123 ± 19.9 ×10⁻⁶ cm/s
same,Papp at 47 μM,"MRP2 [2]; pH 6.5, with emodin 185 μM on mucosal side, pravastatin 47 μM, emodin 185 μM on mucosal side, read-out: Papp S-M in the presence of emodin",70.3 ± 19.8 ×10⁻⁶ cm/s
same,Papp at 47 μM,"MRP2 [2]; pH 6.5, with emodin 370 μM on mucosal side, pravastatin 47 μM, emodin 370 μM on mucosal side, read-out: Papp M-S in the presence of emodin",106 ± 40.3 ×10⁻⁶ cm/s
same,Papp at 47 μM,"MRP2 [2]; pH 6.5, with emodin 370 μM on mucosal side, pravastatin 47 μM, emodin 370 μM on mucosal side, read-out: Papp S-M in the presence of emodin",90.8 ± 12.7 ×10⁻⁶ cm/s
same,Papp at 47 μM,"MRP2 [2]; pH 6.5, with emodin 740 μM on mucosal side, pravastatin 47 μM, emodin 740 μM on mucosal side, read-out: Papp M-S in the presence of emodin",93.8 ± 28.7 ×10⁻⁶ cm/s
same,Papp at 47 μM,"MRP2 [2]; pH 6.5, with emodin 740 μM on mucosal side, pravastatin 47 μM, emodin 740 μM on mucosal side, read-out: Papp S-M in the presence of emodin",105 ± 27.3 ×10⁻⁶ cm/s
